{
  "source": "paper PMC5218480",
  "about": "(PLoS ONE, 2017)",
  "test_system": "MV-4-11 cells",
  "assay": "Gene expression microarray analysis (Affymetrix PrimeView) and GSEA",
  "assay_type": "cell-based, human",
  "set-up": "RFU PODN (11730768_x_at) / Fold change /veh PODN (11730768_x_at) / RFU LINC00158 (11744669_a_at) / Fold change /veh LINC00158 (11744669_a_at) / RFU DUSP10 (11751237_a_at) / Fold change /veh DUSP10 (11751237_a_at) / RFU ID3 (11757404_x_at) / Fold change /veh ID3 (11757404_x_at) / RFU PLEKHG5 (11737974_s_at) / Fold change /veh PLEKHG5 (11737974_s_at) / RFU LRRC4B (11730491_at) / Fold change /veh LRRC4B (11730491_at) / RFU GIMAP4 (11747438_a_at) / Fold change /veh GIMAP4 (11747438_a_at) / RFU KRT8 (11758183_x_at) / Fold change /veh KRT8 (11758183_x_at) / RFU CNN1 (11734310_a_at) / Fold change /veh CNN1 (11734310_a_at) / RFU VPS37D (11726825_at) / Fold change /veh VPS37D (11726825_at) / RFU C10orf10 (11716522_x_at) / Fold change /veh C10orf10 (11716522_x_at) / RFU KIR2DL2 /// KIR2DL4 /// KIR2DL5A /// KIR2DL5B /// KIR2DS1 /// KIR2DS2 /// KIR2DS3 /// KIR2DS4 /// KIR3DL3 /// KIR3DL3 /// KIR3DS1 (11738374_at) / Fold change /veh KIR2DL2 /// KIR2DL4 /// KIR2DL5A /// KIR2DL5B /// KIR2DS1 /// KIR2DS2 /// KIR2DS3 /// KIR2DS4 /// KIR3DL3 /// KIR3DL3 /// KIR3DS1 (11738374_at) / RFU C1QL1 (11718748_at) / Fold change /veh C1QL1 (11718748_at) / RFU TMPRSS4 (11747572_a_at) / Fold change /veh TMPRSS4 (11747572_a_at) / RFU HAMP (11756126_x_at) / Fold change /veh HAMP (11756126_x_at) / RFU RNFT2 (11725882_a_at) / Fold change /veh RNFT2 (11725882_a_at) / RFU NR4A2 (11747474_a_at) / Fold change /veh NR4A2 (11747474_a_at) / RFU ABCC12 (11746883_a_at) / Fold change /veh ABCC12 (11746883_a_at) / RFU TMEM136 (11760407_x_at) / Fold change /veh TMEM136 (11760407_x_at) / RFU CLDN22 /// WWC2 (11732394_at) / Fold change /veh CLDN22 /// WWC2 (11732394_at) / RFU HLA-DPB1 (11760878_x_at) / Fold change /veh HLA-DPB1 (11760878_x_at) / RFU SPINT1 (11716480_a_at) / Fold change /veh SPINT1 (11716480_a_at) / RFU GAP43 (11754022_s_at) / Fold change /veh GAP43 (11754022_s_at) / RFU A4GNT (11735810_at) / Fold change /veh A4GNT (11735810_at) / RFU PRB3 (11715151_x_at) / Fold change /veh PRB3 (11715151_x_at) / RFU TUBB4B (11761932_at) / Fold change /veh TUBB4B (11761932_at) / RFU CAPN14 (11732068_a_at) / Fold change /veh CAPN14 (11732068_a_at) / RFU TMCC2 (11721928_a_at) / Fold change /veh TMCC2 (11721928_a_at) / RFU IRGQ (11745062_a_at) / Fold change /veh IRGQ (11745062_a_at) / RFU FAM174B (11720279_a_at) / Fold change /veh FAM174B (11720279_a_at) / RFU TMPRSS4 (11748680_a_at) / Fold change /veh TMPRSS4 (11748680_a_at) / RFU FAM212B (11763350_a_at) / Fold change /veh FAM212B (11763350_a_at) / RFU PLEKHG5 (11743358_a_at) / Fold change /veh PLEKHG5 (11743358_a_at) / RFU ZSCAN30 (11745921_a_at) / Fold change /veh ZSCAN30 (11745921_a_at) / RFU CMKLR1 (11741424_a_at) / Fold change /veh CMKLR1 (11741424_a_at) / RFU LOC101060620 /// MAPK8IP1 (11723275_at) / Fold change /veh LOC101060620 /// MAPK8IP1 (11723275_at) / RFU SPTSSB (11747773_x_at) / Fold change /veh SPTSSB (11747773_x_at) / RFU PRSS12 (11739890_at) / Fold change /veh PRSS12 (11739890_at) / RFU BIN1 (11741810_x_at) / Fold change /veh BIN1 (11741810_x_at) / RFU WNT11 (11732464_a_at) / Fold change /veh WNT11 (11732464_a_at) / RFU C10orf10 (11716521_a_at) / Fold change /veh C10orf10 (11716521_a_at) / RFU C5orf56 (11738089_at) / Fold change /veh C5orf56 (11738089_at) / RFU CYB561 (11721691_x_at) / Fold change /veh CYB561 (11721691_x_at) / RFU ANKRD19P (11752326_a_at) / Fold change /veh ANKRD19P (11752326_a_at) / RFU OR2T12 /// OR2T33 /// OR2T8 (11738714_s_at) / Fold change /veh OR2T12 /// OR2T33 /// OR2T8 (11738714_s_at) / RFU VCAN (11748164_a_at) / Fold change /veh VCAN (11748164_a_at) / RFU JSRP1 (11732532_at) / Fold change /veh JSRP1 (11732532_at) / RFU KRTAP10-11 (11738290_x_at) / Fold change /veh KRTAP10-11 (11738290_x_at) / RFU MYO3A (11730013_a_at) / Fold change /veh MYO3A (11730013_a_at) / RFU EBF3 (11725865_a_at) / Fold change /veh EBF3 (11725865_a_at) / RFU CAMK2N1 (11719241_x_at) / Fold change /veh CAMK2N1 (11719241_x_at) / RFU C5orf56 (11738088_a_at) / Fold change /veh C5orf56 (11738088_a_at) / RFU OLFML3 (11715873_a_at) / Fold change /veh OLFML3 (11715873_a_at) / RFU LOC100653217 /// NTM (11731650_a_at) / Fold change /veh LOC100653217 /// NTM (11731650_a_at) / RFU MAPK11 (11762145_a_at) / Fold change /veh MAPK11 (11762145_a_at) / RFU FIZ1 (11724087_x_at) / Fold change /veh FIZ1 (11724087_x_at) / RFU OASL (11726364_x_at) / Fold change /veh OASL (11726364_x_at) / RFU SOX15 (11748057_x_at) / Fold change /veh SOX15 (11748057_x_at) / RFU CD79A (11719716_a_at) / Fold change /veh CD79A (11719716_a_at) / RFU HIST1H1D (11736915_at) / Fold change /veh HIST1H1D (11736915_at) / RFU CASKIN2 (11723855_a_at) / Fold change /veh CASKIN2 (11723855_a_at) / RFU LOC730098 (11760151_x_at) / Fold change /veh LOC730098 (11760151_x_at) / RFU OR4N2 (11742367_at) / Fold change /veh OR4N2 (11742367_at) / RFU PRRT2 (11749266_a_at) / Fold change /veh PRRT2 (11749266_a_at) / RFU SNX32 (11753110_a_at) / Fold change /veh SNX32 (11753110_a_at) / RFU CDHR5 (11726645_a_at) / Fold change /veh CDHR5 (11726645_a_at) / RFU RCAN1 (11760418_a_at) / Fold change /veh RCAN1 (11760418_a_at) / RFU FAM167A (11723789_a_at) / Fold change /veh FAM167A (11723789_a_at) / RFU FAM26E (11764081_at) / Fold change /veh FAM26E (11764081_at) / RFU ISYNA1 (11749810_s_at) / Fold change /veh ISYNA1 (11749810_s_at) / RFU ACY1 (11761880_at) / Fold change /veh ACY1 (11761880_at) / RFU 11764098_at / Fold change /veh 11764098_at / RFU SAMD14 (11745864_x_at) / Fold change /veh SAMD14 (11745864_x_at) / RFU NPB (11741838_a_at) / Fold change /veh NPB (11741838_a_at) / RFU TMPRSS6 (11731388_a_at) / Fold change /veh TMPRSS6 (11731388_a_at) / RFU KRTAP10-2 (11738614_at) / Fold change /veh KRTAP10-2 (11738614_at) / RFU ARHGAP8 /// PRR5-ARHGAP8 (11727945_x_at) / Fold change /veh ARHGAP8 /// PRR5-ARHGAP8 (11727945_x_at) / RFU KRTAP5-7 /// NADSYN1 (11734609_at) / Fold change /veh KRTAP5-7 /// NADSYN1 (11734609_at) / RFU RASL12 (11751679_a_at) / Fold change /veh RASL12 (11751679_a_at) / RFU CDKN2B (11736163_a_at) / Fold change /veh CDKN2B (11736163_a_at) / RFU PRF1 (11729649_at) / Fold change /veh PRF1 (11729649_at) / RFU, ZNF638 /// ZNF638-IT1 / Fold change vs veh, ZNF638 /// ZNF638-IT1 / RFU, PANK3 / Fold change vs veh, PANK3 / RFU, SH3YL1 / Fold change vs veh, SH3YL1 / RFU, ZEB2 / Fold change vs veh, ZEB2 / RFU, NRIP1 / Fold change vs veh, NRIP1 / RFU, PTTG1IP / Fold change vs veh, PTTG1IP / RFU, CAPN2 / Fold change vs veh, CAPN2 / RFU, MED14 / Fold change vs veh, MED14 / RFU, SNORA58 / Fold change vs veh, SNORA58 / RFU, C1orf63 / Fold change vs veh, C1orf63 / RFU, LRRFIP1 / Fold change vs veh, LRRFIP1 / RFU, NDUFAF7 / Fold change vs veh, NDUFAF7 / RFU, SLC12A2 / Fold change vs veh, SLC12A2 / RFU, IBTK / Fold change vs veh, IBTK / RFU, ESF1 / Fold change vs veh, ESF1 / Fold change vs veh, TMEM50B / RFU, TAOK1 / Fold change vs veh, TAOK1 / RFU, ACBD3 / Fold change vs veh, ACBD3 / RFU, TMA16 / Fold change vs veh, TMA16 / RFU, RWDD3 / Fold change vs veh, RWDD3 / RFU, BCAT1 / Fold change vs veh, BCAT1 / RFU, EDEM3 / Fold change vs veh, EDEM3 / RFU, TMEM33 / Fold change vs veh, TMEM33 / RFU, WDR75 / Fold change vs veh, WDR75 / RFU, AHCTF1 / Fold change vs veh, AHCTF1 / RFU, TFRC / Fold change vs veh, TFRC / RFU, ZDHHC17 / Fold change vs veh, ZDHHC17 / RFU, NOM1 / Fold change vs veh, NOM1 / RFU, ARL8B / Fold change vs veh, ARL8B / RFU, ZBTB11 / Fold change vs veh, ZBTB11 / RFU, TAMM41 / Fold change vs veh, TAMM41 / RFU, KIAA1704 /// LOC100996395 / Fold change vs veh, KIAA1704 /// LOC100996395 / RFU, ING1 / Fold change vs veh, ING1 / RFU, TRMT61B / Fold change vs veh, TRMT61B / RFU, FUBP3 / Fold change vs veh, FUBP3 / RFU, TP53 / Fold change vs veh, TP53 / RFU, TNKS2 / Fold change vs veh, TNKS2 / RFU, ZFP14 / Fold change vs veh, ZFP14 / RFU, ACTR2 / Fold change vs veh, ACTR2 / RFU, PPP3R1 / Fold change vs veh, PPP3R1 / RFU, PIK3R1 / Fold change vs veh, PIK3R1 / RFU, HNRNPA1 / Fold change vs veh, HNRNPA1 / RFU, RNF170 / Fold change vs veh, RNF170 / RFU, ZNF28 / Fold change vs veh, ZNF28 / RFU, RNGTT / Fold change vs veh, RNGTT / RFU, OGT / Fold change vs veh, OGT / RFU, BRD1 / Fold change vs veh, BRD1 / RFU, MARS / Fold change vs veh, MARS / RFU, ZNF655 / Fold change vs veh, ZNF655 / RFU, FAHD1 / Fold change vs veh, FAHD1 / RFU, BDP1 / Fold change vs veh, BDP1 / RFU, LRRCC1 / Fold change vs veh, LRRCC1 / RFU, ARID1A / Fold change vs veh, ARID1A / RFU, ZNF146 / Fold change vs veh, ZNF146 / RFU, ZNF330 / Fold change vs veh, ZNF330 / RFU, GPN3 / Fold change vs veh, GPN3 / RFU, C9orf123 / Fold change vs veh, C9orf123 / RFU, N4BP2L2 / Fold change vs veh, N4BP2L2 / RFU, ARFIP1 / Fold change vs veh, ARFIP1 / RFU, FAM179B / Fold change vs veh, FAM179B / RFU, BCL10 / Fold change vs veh, BCL10 / RFU, UHRF1BP1L / Fold change vs veh, UHRF1BP1L / RFU, BET1 / Fold change vs veh, BET1 / RFU, CNOT2 / Fold change vs veh, CNOT2 / RFU, ZNF268 / Fold change vs veh, ZNF268 / Fold change vs veh, ZNF507 / RFU, DGCR2 / Fold change vs veh, DGCR2 / RFU, WDSUB1 / Fold change vs veh, WDSUB1 / Fold change vs veh, HSP90B1 /// MIR3652 / RFU, ADSS / Fold change vs veh, ADSS / RFU, GK / Fold change vs veh, GK / RFU, ZNF148 / Fold change vs veh, ZNF148 / RFU, TAF9 / Fold change vs veh, TAF9 / RFU, SLC1A5 / Fold change vs veh, SLC1A5 / RFU, SLMO2 / Fold change vs veh, SLMO2 / RFU, ABCC4 / Fold change vs veh, ABCC4 / RFU, LOC101060439 /// RAP1B / Fold change vs veh, LOC101060439 /// RAP1B / RFU, RFX7 / Fold change vs veh, RFX7 / RFU, GTPBP10 / Fold change vs veh, GTPBP10 / RFU, CNEP1R1 / Fold change vs veh, CNEP1R1 / RFU, BIVM-ERCC5 /// ERCC5 / Fold change vs veh, BIVM-ERCC5 /// ERCC5 / RFU, ILF3 / Fold change vs veh, ILF3 / RFU 11762660_at / Fold change /veh 11762660_at / RFU VCAN (11757783_s_at) / Fold change /veh VCAN (11757783_s_at) / RFU DDX43 (11728927_at) / Fold change /veh DDX43 (11728927_at) / RFU KRT8 (11758188_x_at) / Fold change /veh KRT8 (11758188_x_at) / RFU NKD1 (11759106_at) / Fold change /veh NKD1 (11759106_at) / RFU SRD5A1 (11742802_a_at) / Fold change /veh SRD5A1 (11742802_a_at) / RFU TPSAB1 /// TPSB2 (11721975_s_at) / Fold change /veh TPSAB1 /// TPSB2 (11721975_s_at) / RFU GSTM3 (11746129_a_at) / Fold change /veh GSTM3 (11746129_a_at) / RFU IL23R (11737362_x_at) / Fold change /veh IL23R (11737362_x_at) / RFU TMEM51 (11727254_a_at) / Fold change /veh TMEM51 (11727254_a_at) / RFU PIWIL2 (11732686_x_at) / Fold change /veh PIWIL2 (11732686_x_at) / RFU ORM1 (11744905_x_at) / Fold change /veh ORM1 (11744905_x_at) / RFU CCDC152 (11743942_at) / Fold change /veh CCDC152 (11743942_at) / RFU ECM1 (11717891_a_at) / Fold change /veh ECM1 (11717891_a_at) / RFU IL23R (11748794_a_at) / Fold change /veh IL23R (11748794_a_at) / RFU TNFAIP8L3 (11732012_x_at) / Fold change /veh TNFAIP8L3 (11732012_x_at) / RFU MBOAT4 (11741988_at) / Fold change /veh MBOAT4 (11741988_at) / RFU 11764193_at / Fold change /veh 11764193_at / RFU TMEM53 (11763286_at) / Fold change /veh TMEM53 (11763286_at) / RFU MAGEB2 (11727129_at) / Fold change /veh MAGEB2 (11727129_at) / RFU TMEM200A (11744735_a_at) / Fold change /veh TMEM200A (11744735_a_at) / RFU CCDC152 (11751479_a_at) / Fold change /veh CCDC152 (11751479_a_at) / RFU FAM211A (11726209_a_at) / Fold change /veh FAM211A (11726209_a_at) / RFU RGS16 (11746705_a_at) / Fold change /veh RGS16 (11746705_a_at) / RFU VCAN (11755009_s_at) / Fold change /veh VCAN (11755009_s_at) / RFU RHOB (11743442_s_at) / Fold change /veh RHOB (11743442_s_at) / RFU RGS16 (11720943_a_at) / Fold change /veh RGS16 (11720943_a_at) / RFU RGS16 (11720944_at) / Fold change /veh RGS16 (11720944_at) / RFU, VPS4B / Fold change vs veh, VPS4B / RFU, CREB1 / Fold change vs veh, CREB1 / RFU, DNAJC13 / Fold change vs veh, DNAJC13 / RFU, GNAQ / Fold change vs veh, GNAQ / RFU, CDK5R1 / Fold change vs veh, CDK5R1 / RFU, ZRANB3 / Fold change vs veh, ZRANB3 / RFU, CUL4A / Fold change vs veh, CUL4A / RFU, CCNY / Fold change vs veh, CCNY / RFU, UFL1 / Fold change vs veh, UFL1 / RFU, COG3 / Fold change vs veh, COG3 / RFU, DIAPH2 / Fold change vs veh, DIAPH2 / RFU, SKA2 / Fold change vs veh, SKA2 / RFU, AFF3 / Fold change vs veh, AFF3 / RFU, LMF1 / Fold change vs veh, LMF1 / RFU, IPO11 / Fold change vs veh, IPO11 / RFU, DFFB / Fold change vs veh, DFFB / RFU, FOXP1 / Fold change vs veh, FOXP1 / RFU, CARD8 / Fold change vs veh, CARD8 / RFU, STRN3 / Fold change vs veh, STRN3 / RFU, ADK / Fold change vs veh, ADK / RFU, RASSF2 / Fold change vs veh, RASSF2 / RFU, WIPF1 / Fold change vs veh, WIPF1 / RFU, LARP1B / Fold change vs veh, LARP1B / RFU, RASA1 / Fold change vs veh, RASA1 / RFU, RB1 / Fold change vs veh, RB1 / RFU, PPFIA1 / Fold change vs veh, PPFIA1 / RFU, MAT2A / Fold change vs veh, MAT2A / RFU, CCT5 / Fold change vs veh, CCT5 / RFU, WDR92 / Fold change vs veh, WDR92 / RFU, CUX1 / Fold change vs veh, CUX1 / RFU, TTC7A / Fold change vs veh, TTC7A / RFU, TMEM135 / Fold change vs veh, TMEM135 / RFU, DEPTOR / Fold change vs veh, DEPTOR / RFU, CPM / Fold change vs veh, CPM / RFU, DNAJB6 / Fold change vs veh, DNAJB6 / RFU, CACNA2D3 / Fold change vs veh, CACNA2D3 / RFU, DTX4 / Fold change vs veh, DTX4 / RFU, TFCP2 / Fold change vs veh, TFCP2 / RFU, GMCL1 /// GMCL1P1 / Fold change vs veh, GMCL1 /// GMCL1P1 / RFU, AEBP2 / Fold change vs veh, AEBP2 / RFU, SNHG1 /// SNORD22 /// SNORD25 /// SNORD26 /// SNORD27 /// SNORD28 /// SNORD29 /// SNORD31 / Fold change vs veh, SNHG1 /// SNORD22 /// SNORD25 /// SNORD26 /// SNORD27 /// SNORD28 /// SNORD29 /// SNORD31 / Fold change (Aza/veh), C12orf56 (ProbeSet 11735607_a_at) / Fold change (ACY-1035/veh), C12orf56 (ProbeSet 11735607_a_at) / Fold change (Aza/veh), FGFR1OP (ProbeSet 11751329_s_at) / Fold change (ACY-1035/veh), FGFR1OP (ProbeSet 11751329_s_at) / Fold change (Aza/veh), VPS36 (ProbeSet 11739960_a_at) / Fold change (ACY-1035/veh), VPS36 (ProbeSet 11739960_a_at) / RFU SYPL1 (11715823_x_at) / Fold change /veh SYPL1 (11715823_x_at) / RFU IGFBP7 (11715501_s_at) / Fold change /veh IGFBP7 (11715501_s_at) / RFU REEP3 (11722064_at) / Fold change /veh REEP3 (11722064_at) / RFU IGLL1 (11728026_x_at) / Fold change /veh IGLL1 (11728026_x_at): dose or concentration left out as unconfirmed",
  "conditions": "ProbeSet 11763166_a_at; LIST B",
  "data": [
    {"smiles": "Nc1ccc(-c2cccs2)cc1NC(=O)c1ccc2c(c1)cc(C1CC1)n2CCN1CCOCC1", "note": "[ACY-1035]", "values": [
      {"measurement": "Fold change vs veh, MARS", "result": 1.14}
    ]}
  ]
}
